Converted amounts (≈) assume the structure as drawn. One block for each compound: values may come before it.
Assays:
[1] = tested on: Staphylococcus aureus; test: Antibacterial activity against Staphylococcus aureus ATCC 29213 after 18 hrs by broth microdilution method; format: functional; conditions: ATCC 29213, 18 h
[2] = tested on: Bacillus thuringiensis; test: Antibacterial activity against Bacillus thuringiensis SCSIO BT01 after 18 hrs by broth microdilution method; format: functional; conditions: SCSIO BT01, 18 h
[3] = tested on: Bacillus subtilis; test: Antibacterial activity against Bacillus subtilis SCSIO BS01 after 18 hrs by broth microdilution method; format: functional; conditions: SCSIO BS01, 18 h
[4] = tested on: Escherichia coli; test: Antibacterial activity against Escherichia coli ATCC 25922 after 18 hrs by broth microdilution method; format: functional; conditions: ATCC 25922, 18 h
[5] = tested on: Staphylococcus aureus; test: Antibacterial activity against methicillin-sensitive Staphylococcus aureus ATCC 29213 after 18 hrs by broth microdilution method; format: functional, organism-based; conditions: ATCC 29213, 18 h, read-out: IC50
[6] = tested on: Staphylococcus aureus; test: Antibacterial activity against methicillin-resistant Staphylococcus aureus ATCC 33591 after 18 hrs by broth microdilution method; format: functional, organism-based; conditions: ATCC 33591, 18 h, read-out: IC50
[7] = tested on: Staphylococcus aureus; test: Antibacterial activity against methicillin-sensitive Staphylococcus aureus 15 after 18 hrs by broth microdilution method; format: functional, organism-based; conditions: Staphylococcus aureus, 15, 18 h; read-out: IC50
[8] = tested on: Staphylococcus aureus; test: Antibacterial activity against methicillin-sensitive Staphylococcus aureus 12-28 after 18 hrs by broth microdilution method; format: functional, organism-based; conditions: 12-28, 18 h
[9] = tested on: Staphylococcus aureus; test: Antibacterial activity against methicillin-resistant Staphylococcus aureus 12-33 after 18 hrs by broth microdilution method; format: functional, organism-based; conditions: 12-33, 18 h, read-out: IC50
[10] = tested on: Staphylococcus epidermidis; test: Antibacterial activity against methicillin-sensitive Staphylococcus epidermidis ATCC 12228 after 18 hrs by broth microdilution method; format: functional, organism-based; conditions: ATCC 12228, 18 h, read-out: IC50
[11] = tested on: Staphylococcus epidermidis; test: Antibacterial activity against methicillin-sensitive Staphylococcus epidermidis 12-6 after 18 hrs by broth microdilution method; format: functional, organism-based; conditions: 12-6, 18 h
[12] = tested on: Staphylococcus epidermidis; test: Antibacterial activity against methicillin-resistant Staphylococcus epidermidis 12-8 after 18 hrs by broth microdilution method; format: functional, organism-based; conditions: 12-8, 18 h, read-out: IC50
[13] = tested on: Enterococcus faecalis; test: Antibacterial activity against vancomycin-sensitive Enterococcus faecalis ATCC 29212 after 18 hrs by broth microdilution method; format: functional, organism-based; conditions: ATCC 29212, 18 h, read-out: IC50
[14] = tested on: Enterococcus faecalis; test: Antibacterial activity against vancomycin-resistant Enterococcus faecalis ATCC 51299 after 18 hrs by broth microdilution method; format: functional, organism-based; conditions: ATCC 51299, 18 h, read-out: IC50
[15] = tested on: Enterococcus faecalis; test: Antibacterial activity against vancomycin-sensitive Enterococcus faecalis 12-5 after 18 hrs by broth microdilution method; format: functional, organism-based; conditions: 12-5, 18 h, read-out: IC50
[16] = tested on: Enterococcus faecalis; test: Antibacterial activity against vancomycin-resistant Enterococcus faecalis 09-9 after 18 hrs by broth microdilution method; format: functional, organism-based; conditions: 09-9, 18 h, read-out: IC50
[17] = tested on: Enterococcus faecium; test: Antibacterial activity against vancomycin-resistant Enterococcus faecium ATCC 700221 after 18 hrs by broth microdilution method; format: functional, organism-based; conditions: ATCC 700221, 18 h, read-out: IC50
[18] = tested on: Enterococcus faecium; test: Antibacterial activity against vancomycin-resistant Enterococcus faecium 12-1 after 18 hrs by broth microdilution method; format: functional, organism-based; conditions: 12-1, 18 h, read-out: IC50
[19] = tested on: Enterococcus faecium; test: Antibacterial activity against vancomycin-sensitive Enterococcus faecium 12-3 after 18 hrs by broth microdilution method; format: functional, organism-based; conditions: 12-3, 18 h, read-out: IC50
[20] = tested on: Escherichia coli; test: Antibacterial activity against extended spectrum beta-lactamase-deficient Escherichia coli ATCC 25922 after 18 hrs by broth microdilution method; format: functional, organism-based; conditions: ATCC 25922, 18 h, read-out: IC50
[21] = tested on: Escherichia coli; test: Antibacterial activity against extended spectrum beta-lactamase-deficient Escherichia coli 1515 after 18 hrs by broth microdilution method; format: functional, organism-based; conditions: Escherichia coli, 1515, 18 h
[22] = tested on: Escherichia coli; test: Antibacterial activity against extended spectrum beta-lactamase-deficient Escherichia coli 12-14 after 18 hrs by broth microdilution method; format: functional, organism-based; conditions: 12-14, 18 h, read-out: IC50
[23] = tested on: Escherichia coli; test: Antibacterial activity against extended spectrum beta-lactamase producing Escherichia coli 12-15 after 18 hrs by broth microdilution method; format: functional, organism-based; conditions: 12-15, 18 h, read-out: IC50
[24] = tested on: Klebsiella pneumoniae; test: Antibacterial activity against extended spectrum beta-lactamase producing Klebsiella pneumoniae ATCC 700603 after 18 hrs by broth microdilution method; format: functional, organism-based; conditions: ATCC 700603, 18 h
[25] = tested on: Klebsiella pneumoniae; test: Antibacterial activity against extended spectrum beta-lactamase-deficient Klebsiella pneumoniae 7 after 18 hrs by broth microdilution method; format: functional, organism-based; conditions: Klebsiella pneumoniae, 7, 18 h; read-out: IC50
[26] = tested on: Klebsiella pneumoniae; test: Antibacterial activity against NDM-1 producing Klebsiella pneumoniae ATCC BAA-2146 after 18 hrs by broth microdilution method; format: functional, organism-based; conditions: ATCC BAA-2146, 18 h, read-out: IC50
[27] = tested on: Klebsiella pneumoniae; test: Antibacterial activity against extended spectrum beta-lactamase-deficient Klebsiella pneumoniae 12-4 after 18 hrs by broth microdilution method; format: functional, organism-based; conditions: 12-4, 18 h
[28] = tested on: Klebsiella pneumoniae; test: Antibacterial activity against extended spectrum beta-lactamase producing Klebsiella pneumoniae 12-8 after 18 hrs by broth microdilution method; format: functional, organism-based; conditions: 12-8, 18 h, read-out: IC50
[29] = tested on: Staphylococcus aureus; test: Ratio of levofloxacin IC50 to compound IC50 for methicillin-resistant Staphylococcus aureus 12-33 after 18 hrs by broth microdilution method; format: functional

Compound: CCCc1c(Cl)c(O)c(Cl)c2c1Oc1c(Cl)c(O)c(Cl)c(CCC)c1C(=O)O2
MIC [1]: 4 mg/L (≈ 8.58 µM) | MIC [2]: 2 mg/L (≈ 4.29 µM) | MIC [3]: 2 mg/L (≈ 4.29 µM) | MIC [4]: > 128 mg/L | MIC [5]: 16 µM (≈ 7.46 µg/mL) | MIC [6]: 16 µM (≈ 7.46 µg/mL) | MIC [7]: 16 µM (≈ 7.46 µg/mL) | IC50 [8]: 16 µM | MIC [9]: 32 µM (≈ 14.9 µg/mL) | MIC [10]: 4 µM (≈ 1.86 µg/mL) | IC50 [11]: 4 µM | MIC [12]: 8 µM (≈ 3.73 µg/mL) | MIC [13]: 64 µM (≈ 29.8 µg/mL) | MIC [14]: 64 µM (≈ 29.8 µg/mL) | MIC [15]: 64 µM (≈ 29.8 µg/mL) | MIC [16]: 64 µM (≈ 29.8 µg/mL) | MIC [17]: 64 µM (≈ 29.8 µg/mL) | MIC [18]: 64 µM (≈ 29.8 µg/mL) | MIC [19]: 64 µM (≈ 29.8 µg/mL) | MIC [20]: > 256 µM | IC50 [21]: > 256 µM | MIC [22]: > 256 µM | MIC [23]: > 256 µM | IC50 [24]: > 256 µM | MIC [25]: > 256 µM | MIC [26]: > 256 µM | IC50 [27]: > 256 µM | MIC [28]: > 256 µM | Ratio IC50 [29]: 2

Compound: CCCc1c(Cl)c(OC)c(Cl)c2c1OC(=O)c1c(CCC)c(Cl)c(O)c(Cl)c1O2
MIC [1]: 0.25 mg/L (≈ 0.521 µM) | MIC [2]: 0.5 mg/L (≈ 1.04 µM) | MIC [3]: 0.25 mg/L (≈ 0.521 µM) | MIC [4]: > 128 mg/L

Compound: CCCc1cc(O)cc2c1OC(=O)c1c(CCC)c(Cl)c(O)c(Cl)c1O2
MIC [1]: 4 mg/L (≈ 10.1 µM) | MIC [2]: 2 mg/L (≈ 5.03 µM) | MIC [3]: 2 mg/L (≈ 5.03 µM) | MIC [4]: > 128 mg/L

Compound: CCCc1c(Cl)c(O)cc2c1OC(=O)c1c(CCC)c(Cl)c(O)c(Cl)c1O2
MIC [1]: 1 mg/L (≈ 2.32 µM) | MIC [2]: 1 mg/L (≈ 2.32 µM) | MIC [3]: 0.5 mg/L (≈ 1.16 µM) | MIC [4]: > 128 mg/L

Compound: C[C@H]1COc2c(N3CCN(C)CC3)c(F)cc3c(=O)c(C(=O)O)cn1c23 [LEVOFLOXACIN]
MIC [5]: 0.25 µM (≈ 0.0903 µg/mL) | MIC [6]: 0.25 µM (≈ 0.0903 µg/mL) | MIC [7]: 0.125 µM (≈ 0.0452 µg/mL) | IC50 [8]: 0.25 µM | MIC [9]: 64 µM (≈ 23.1 µg/mL) | MIC [10]: 0.25 µM (≈ 0.0903 µg/mL) | IC50 [11]: 0.25 µM | MIC [12]: 4 µM (≈ 1.45 µg/mL) | MIC [13]: 1 µM (≈ 0.361 µg/mL) | MIC [14]: 1 µM (≈ 0.361 µg/mL) | MIC [15]: 1 µM (≈ 0.361 µg/mL) | MIC [16]: > 128 µM | MIC [17]: 64 µM (≈ 23.1 µg/mL) | MIC [18]: 64 µM (≈ 23.1 µg/mL) | MIC [19]: 64 µM (≈ 23.1 µg/mL) | MIC [20]: ≤ 0.03 µM | IC50 [21]: 0.125 µM | MIC [22]: 1 µM (≈ 0.361 µg/mL) | MIC [23]: 32 µM (≈ 11.6 µg/mL) | IC50 [24]: 1 µM | MIC [25]: 0.25 µM (≈ 0.0903 µg/mL) | MIC [26]: > 128 µM | IC50 [27]: 0.125 µM | MIC [28]: 16 µM (≈ 5.78 µg/mL)

Compound: CC1(C)S[C@@H]2[C@H](NC(=O)Cc3ccccc3)C(=O)N2[C@H]1C(=O)O [PENICILLIN G]
MIC [1]: 0.125 mg/L (≈ 0.374 µM) | MIC [2]: 128 mg/L (≈ 383 µM) | MIC [3]: 0.125 mg/L (≈ 0.374 µM) | MIC [4]: > 128 mg/L

Continued, values first:

MIC [1]: 0.5 mg/L (≈ 1.12 µM) | MIC [2]: 0.5 mg/L (≈ 1.12 µM) | MIC [3]: 0.5 mg/L (≈ 1.12 µM) | MIC [4]: > 128 mg/L
Compound: CCCc1c(Cl)c(OC)cc2c1OC(=O)c1c(CCC)c(Cl)c(O)c(Cl)c1O2

MIC [1]: 4 mg/L (≈ 8.58 µM) | MIC [2]: 2 mg/L (≈ 4.29 µM) | MIC [3]: 2 mg/L (≈ 4.29 µM) | MIC [4]: > 128 mg/L
Compound: CCCc1c(Cl)c(O)c(Cl)c2c1OC(=O)c1c(CCC)c(Cl)c(O)c(Cl)c1O2

Source: ChEMBL document CHEMBL3232998, “Spiromastixones A-O, antibacterial chlorodepsidones from a deep-sea-derived Spiromastix sp. fungus” (J Nat Prod, 2014)
